For 22 compounds, T/C results are on record in PubChem BioAssay AID330 (DTP/NCI, 2004).

Several values for one entry are separate records, joined by “and”; a condition that tells them apart may be missing. Identical values can stand only once. Inconclusive results and toxic doses are left out.

This experiment has as its system P388 leukemia ip, CD2F1 mice, survival T/C. In words: NCI In Vivo Anticancer Drug Screen. Data for tumor model P388 Leukemia (intraperitoneal) in CD2F1 (CDF1) mice. Particulars: endpoint: median survival time, higher = longer survival. In outline: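 Mice carrying the transplanted tumor received test compound or vehicle. Survival was recorded in each group, and the value is the treated-group measurement divided by that of the vehicle-treated control group.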

Setting [1] is: dose: 60.0 mg/kg/injection, schedule: Q01DX005 (ip), vehicle: Klucel (hydroxypropylcellulose) (HPC).
The mark [2] stands for this setting: dose: 120.0 mg/kg/injection, schedule: Q01DX005 (ip), vehicle: Klucel (hydroxypropylcellulose) (HPC).
Setting [3] is: dose: 240.0 mg/kg/injection, schedule: Q01DX005 (ip), vehicle: Klucel (hydroxypropylcellulose) (HPC).
Where [4] appears, read: dose: 200.0 mg/kg/injection, schedule: Q04DX002 (ip), vehicle: saline with Tween-80.
The mark [5] stands for this setting: dose: 400.0 mg/kg/injection, schedule: Q04DX002 (ip), vehicle: saline with Tween-80.
The mark [6] stands for this setting: dose: 25.0 mg/kg/injection, schedule: Q01DX005 (ip), vehicle: saline with Tween-80.
[7] abbreviates: dose: 50.0 mg/kg/injection, schedule: Q01DX005 (ip), vehicle: saline with Tween-80.
Setting [8] is: dose: 25.0 mg/kg/injection, schedule: Q01DX009 (ip), vehicle: saline with Tween-80.

`C[C@@H]1C(=O)O[C@H]2[C@H]1CC[C@@]1(C)C[C@@H](I)C(=O)[C@@H](C)[C@H]21`: the T/C by setting is: under setting [1], 92 % of control; under setting [2], 108 % of control.

As for `CC(O)CCC(=O)c1nc2ccccc2s1` (stereo not given), the T/C by setting is: under setting [1], 95 % of control; under setting [2], 100 % of control; under setting [3], 98 % of control.

Turning to `O=C(CCl)NC(Cc1cccc(F)c1)C(=O)O` (stereo not given), the T/C reads like this: (dose: 1.56 mg/kg/injection, schedule: Q01DX009 (ip), vehicle: saline) 97 % of control; (dose: 3.12 mg/kg/injection, schedule: Q01DX009 (ip), vehicle: saline) 97 % of control; (dose: 6.25 mg/kg/injection, schedule: Q01DX009 (ip), vehicle: saline) 100 % of control and 96 % of control.

As to `Cc1cc(C)nc(C2=C(O)c3ccccc3C2=O)c1`, the T/C was 106 % of control under setting [1]; 99 % of control under setting [2]; 87 % of control and 96 % of control under setting [3].

On to `CCOC(=O)c1cc2c(cc1O)C1CC=C(C)[C@@H]3CCO[C@](OC)(C2)[C@]13C(=O)OC` (stereo not given in full), for which the T/C (dose: 6.25 mg/kg/injection, schedule: Q01DX001 (ip), vehicle: saline with Tween-80) is 106 % of control; the T/C (dose: 12.5 mg/kg/injection, schedule: Q01DX001 (ip), vehicle: saline with Tween-80) is 101 % of control; the T/C (dose: 25.0 mg/kg/injection, schedule: Q01DX001 (ip), vehicle: saline with Tween-80) was 111 % of control; the T/C (dose: 50.0 mg/kg/injection, schedule: Q01DX001 (ip), vehicle: saline with Tween-80) is 100 % of control.

With `CS/C(N)=N/NC(=O)CCC(=O)Nc1cc(C)ccc1C`, the T/C was 102 % of control (dose: 100.0 mg/kg/injection, schedule: Q04DX002 (ip), vehicle: saline with Tween-80); 101 % of control under setting [4]; 90 % of control under setting [5].

As for `CCOCCC(=O)NCC(=O)NC1C(C)OC(Nc2ncnc3nc[nH]c23)C(O)C1O` (stereo not given), the T/C is, setting by setting: (dose: 3.12 mg/kg/injection, schedule: Q01DX009 (ip), vehicle: water) 94 % of control; (dose: 6.25 mg/kg/injection, schedule: Q01DX009 (ip), vehicle: water) 100 % of control; (dose: 12.5 mg/kg/injection, schedule: Q01DX009 (ip), vehicle: water) 96 % of control; (dose: 25.0 mg/kg/injection, schedule: Q01DX009 (ip), vehicle: water) 116 % of control; (dose: 50.0 mg/kg/injection, schedule: Q01DX009 (ip), vehicle: water) 100 % of control.

For `CCC12CCCN3CCc4c(n(c5ccc(Br)cc45)C(=O)CC1)C32` (stereo not given), the T/C reads like this: (dose: 12.5 mg/kg/injection, schedule: Q01DX005 (ip), vehicle: saline with Tween-80) 99 % of control; under setting [6], 90 % of control; under setting [7], 88 % of control and 91 % of control.

In the case of `COc1ccc(CC2c3cc(OC)c(OC)c(OC)c3CC[N+]2(C)C)cc1Oc1ccc(CC2c3cc4c(c(OC)c3CC[N+]2(C)C)OCO4)cc1` (stereo not given), the T/C runs as follows: (dose: 1.56 mg/kg/injection, schedule: Q04DX003 (ip), vehicle: saline) 99 % of control; (dose: 3.13 mg/kg/injection, schedule: Q04DX003 (ip), vehicle: saline) 101 % of control.

Take `CCO`: the T/C is, setting by setting: (dose: 250.0 mg/kg/injection, schedule: Q01DX009 (ip), vehicle: saline with Tween-80) 95 % of control; (dose: 0.5 % in 0.5 ml injection vol, schedule: Q01DX009 (ip), vehicle: water) 94 % of control; (dose: 500.0 mg/kg/injection, schedule: Q01DX009 (ip), vehicle: saline with Tween-80) 90 % of control; (dose: 1.0 % in 0.5 ml injection vol, schedule: Q01DX009 (ip), vehicle: water) 92 % of control; (dose: 1000.0 mg/kg/injection, schedule: Q01DX009 (ip), vehicle: saline with Tween-80) 95 % of control; (dose: 2.0 % in 0.5 ml injection vol, schedule: Q01DX009 (ip), vehicle: water) 102 % of control and 94 % of control. For the same compound, the T/C reads like this: (dose: 2000.0 mg/kg/injection, schedule: Q01DX009 (ip), vehicle: saline with Tween-80) 95 % of control; (dose: 4.0 % in 0.5 ml injection vol, schedule: Q01DX009 (ip), vehicle: water) 101 % of control and 106 % of control; (dose: 8.0 % in 0.5 ml injection vol, schedule: Q01DX009 (ip), vehicle: water) 100 % of control and 103 % of control; (dose: 16.0 % in 0.5 ml injection vol, schedule: Q01DX009 (ip), vehicle: water) 100 % of control.

In the case of `C/C=C/COc1cc2c(cc1C(C)c1ccc(OC)cc1)OCO2` (stereo not given), the T/C was 107 % of control under setting [7]; 106 % of control (dose: 100.0 mg/kg/injection, schedule: Q01DX005 (ip), vehicle: saline with Tween-80); 119 % of control (dose: 200.0 mg/kg/injection, schedule: Q01DX005 (ip), vehicle: saline with Tween-80).

Consider `Clc1cccc(Cl)c1C(Nc1nncs1)Nc1nncs1`, for which the T/C is, setting by setting: (dose: 50.0 mg/kg/injection, schedule: Q04DX002 (ip), vehicle: saline with Tween-80) 124 % of control; under setting [4], 162 % of control and 174 % of control; under setting [5], 186 % of control and 192 % of control.

On to `NC(=O)c1[nH]c(N=Nc2ccccc2)nc1N`, for which the T/C by setting is: (dose: 100.0 mg/kg/injection, schedule: Q04DX003 (ip), vehicle: Klucel (hydroxypropylcellulose) (HPC)) 102 % of control; (dose: 200.0 mg/kg/injection, schedule: Q04DX003 (ip), vehicle: Klucel (hydroxypropylcellulose) (HPC)) 102 % of control; (dose: 400.0 mg/kg/injection, schedule: Q04DX003 (ip), vehicle: Klucel (hydroxypropylcellulose) (HPC)) 103 % of control.

On to `COc1cc2c(cc1O)CCCCC2O` (stereo not given), for which the T/C was 94 % of control (dose: 6.25 mg/kg/injection, schedule: Q01DX009 (ip), vehicle: DMSO); 102 % of control (dose: 12.5 mg/kg/injection, schedule: Q01DX009 (ip), vehicle: DMSO); 87 % of control (dose: 25.0 mg/kg/injection, schedule: Q01DX009 (ip), vehicle: DMSO); 94 % of control (dose: 50.0 mg/kg/injection, schedule: Q01DX009 (ip), vehicle: Klucel (hydroxypropylcellulose) (HPC)); 97 % of control (dose: 100.0 mg/kg/injection, schedule: Q01DX009 (ip), vehicle: Klucel (hydroxypropylcellulose) (HPC)); 94 % of control (dose: 200.0 mg/kg/injection, schedule: Q01DX009 (ip), vehicle: Klucel (hydroxypropylcellulose) (HPC)).

On to `CCCCCCN=Cc1c(O)c(O)c(C(C)C)c2cc(C)c(-c3c(C)cc4c(C(C)C)c(O)c(O)c(C=NCCCCCC)c4c3O)c(O)c12`, for which the T/C (dose: 12.0 mg/kg/injection, schedule: Q01DX005 (ip), vehicle: saline with Tween-80) was 100 % of control; the T/C under setting [6] is 92 % of control; the T/C under setting [7] is 96 % of control.

In the case of `CC1CCC(n2cnc3c(Cl)ncnc32)O1` (stereo not given), the T/C by setting is: (dose: 25.0 mg/kg/injection, schedule: Q01DX005 (ip), vehicle: Klucel (hydroxypropylcellulose) (HPC)) 97 % of control; (dose: 50.0 mg/kg/injection, schedule: Q01DX005 (ip), vehicle: Klucel (hydroxypropylcellulose) (HPC)) 103 % of control; (dose: 100.0 mg/kg/injection, schedule: Q01DX005 (ip), vehicle: Klucel (hydroxypropylcellulose) (HPC)) 110 % of control; (dose: 200.0 mg/kg/injection, schedule: Q01DX005 (ip), vehicle: Klucel (hydroxypropylcellulose) (HPC)) 112 % of control; (dose: 400.0 mg/kg/injection, schedule: Q01DX005 (ip), vehicle: Klucel (hydroxypropylcellulose) (HPC)) 114 % of control.

In the case of `c1ccc2c(c1)N=C(NNC1=Nc3ccccc3SC1)CS2`, the T/C runs as follows: (dose: 15.0 mg/kg/injection, schedule: Q01DX005 (ip), vehicle: saline with Tween-80) 95 % of control; (dose: 30.0 mg/kg/injection, schedule: Q01DX005 (ip), vehicle: saline with Tween-80) 92 % of control; (dose: 60.0 mg/kg/injection, schedule: Q01DX005 (ip), vehicle: saline with Tween-80) 88 % of control.

Consider `CCOC1OCN(C(C)C)CC1(C)C` (stereo not given), for which, under setting [8], the T/C was 98 % of control.

With `CN1CCc2c3n(c4ccccc24)C(=O)CCC31` (stereo not given), the T/C (dose: 6.25 mg/kg/injection, schedule: Q01DX009 (ip), vehicle: saline with Tween-80) is 120 % of control; the T/C (dose: 12.5 mg/kg/injection, schedule: Q01DX009 (ip), vehicle: saline with Tween-80) is 120 % of control; the T/C under setting [8] was 120 % of control.

In the case of `C1CC[C@@]2([C@]34CCCC[C@H]3O4)O[C@H]2C1`, the T/C by setting is: under setting [1], 99 % of control; under setting [2], 98 % of control; under setting [3], 95 % of control and 96 % of control.

With `Cc1c(COC(=O)NC(C)C)c(COC(=O)NC(C)C)c(-c2ccccc2)n1-c1ccccc1`, the T/C under setting [7] is 188 % of control and 192 % of control.

`CCC(=O)N(C)[C@@H]1Oc2ccc(O)cc2[C@]1(C)c1cc(O)ccc1O`: the T/C reads like this: under setting [1], 98 % of control; under setting [2], 97 % of control; under setting [3], 99 % of control.
